Assay results taken from US20160326165A1, “ALKOXYCARBONYL HEMIACETAL-TYPE ESTER PRODRUG OF PYRIDONE CARBOXYLIC ACID ANTIBACTERIAL DRUG” (KINKI UNIVERSITY, priority 2013, published 2016).
Values after ≈ are worked out from the molar mass of the structure shown.

How the values were obtained:
[1] = Rat intestinal everted sac method: intestinal absorption and hydrolysis to LVFX, alone or with AlCl3; type: in vitro ADME; details: for LVFX concentration generated within the small intestine lumen from the ester alone versus LVFX alone / influence of simultaneous administration of AlCl3 on LVFX generated: incubation 60 minutes; for hydrolysis into LVFX: incubation for 60 minutes, small intestine; for drug substance LVFX as a hydrolysis product in the everted intestinal tract: ester
Protocol: 1. Glucose 200 mg was dissolved in 100 ml of 20 mM HEPES buffer isotonic sodium chloride solution, and pH is regulated at 7.4 with 5N- or 1N-sodium hydroxide by measuring pH (If pH rises, pH is modulated with 1N-hydrochloric acid.).
1. Similarly in the case of independent administration, glucose 200 mg is dissolved in 100 ml of 20 mM HEPES buffer isotonic sodium chloride solution, and pH is regulated at 7.4 with 5N- or 1N-sodium hydroxide by measuring pH (If pH rises, pH is modulated with 1N-hydrochloric acid.).
2. AlCl3 8.0 mg is dissolved (600 μM).
1. A SD type male rat of 8-week old after the birth is purchased and undergoes quarantine habituation for two days. After fasting for 24 hours, a pentobarbital sodium (50 mg/ml) is injected intraperitoneally in the amount (ml) of: rat weight (g)×0.05/50 (that is, weight (g)×0.001).
2. After the rat sleeps completely, it is incised in the abdomen so as to be observed from the stomach till the bladder, and the intestinal tract is removed from the end of the duodenum to the front 5 cm of the cecum.
3. The intestinal tract is cut off every 10 cm carefully, and all portions are washed with physiological saline (both circumference and inside of intestinal).
4. The intestinal tract is made reversed from the stomach side using a stainless steel tube.
5. The cecum side of the reversed intestinal tract is tied with sutures to make bag-shaped.
6. One (1) ml of the HEPES buffer isotonic sodium chloride solution adjusted is put in from the stomach side of the intestinal tract, and the intestinal tract is tied with a suture.
7. The tied intestinal tract is put in the HEPES buffer isotonic sodium chloride solution cooled upon ice, and is preserved.
2. One (1) ml of the drug solution is taken, and it is diluted with 9 ml of the HEPES buffer isotonic sodium chloride solution 10 times (2 mM).
3. A portion (5 ml) of the solution is further diluted with 95 ml of the HEPES buffer isotonic sodium chloride solution to 20 times (100 μM).
1. Thirty (30) ml of the diluted drug solution is taken to a 50-ml Erlenmeyer flask, and the intestinal tract containing a HEPES buffer isotonic sodium chloride solution is put in.
2. […]
3. The intestinal tract is taken out from the drug solution, and, after flushing and wiping off the drug solution attached to the surroundings of the intestinal tract with the physiological saline, all liquid in the intestinal tract is taken out into the Eppendorf tube.
4. The liquid is centrifuged for 5 minutes at 12,000 rpm.
5. 250 μL of a supernatant liquid is taken as a sample.
The method is the same as the HPLC measurement conditions mentioned above in-vivo experiment.

[2] = Blood concentration and AUC of LVFX after oral administration to rats, alone or with a metal-containing preparation; details: for blood concentration of LVFX after independent administration of the ester versus independent administration of LVFX / blood concentration of LVFX under concomitant use of polyvalent metal-containing antacid: 0-240 minutes
Protocol: A cannulation inner tube (Fuji Systems Corporation Ltd., Tokyo) having an internal diameter of 0.5 mm and an outside diameter of 1.0 mm which is used for blood collecting was inserted in the jugular vein of rats on the preceding day before the administration experiment, and the rats were made to abstain from food for 20 hours in an environment where only water can be taken in the animal room.
The polyvalent metal-containing preparation Al(OH)3 was administered in a dose of 30 mg/kg subject.
After administration of the drug, a blood sample was collected through a jugular vein cannulation inner tube in an amount of 200 μL each along the time elapsed (after 0, 15, 30, 45, 60, 90, 120, 180, and 240 minutes) in a 1-mL syringe treated with heparin, the blood was centrifuged for 5 minutes at 12,000 rpm and 4 deg C immediately, and 50 μL of a supernatant was taken to make plasma.
The following procedures were carried out successively: addition of 100 μL of methanol solution containing 10 μmol/L of CPFX as an internal standard substance to 50 μL of plasma, then stirring; centrifuging for 5 minutes at 6,200 rpm; sampling 100 μL of the supernatant with a syringe; filtering the sample solution using Millex (registered trademark)-HV (0.45 micrometer, MILLIPORE, Billerica, Mass., USA). […] The HPLC measurement conditions were as follows; the column used: TSK-GEL ODS-80 Ts (250×4.6 mm, TOSOH Corp., Tokyo), the mobile phase used: 20-mm sodium-phosphate buffer solution (pH 3.0)/acetonitrile=79:21 (v/v). The measurement was carried out using Shimazu SPD-20A Spectrometer detector (Shimadzu, Kyoto) with 280 nm detection wavelength, and flow rate was 1.0 mL/min. The retention times obtained by these conditions were 6.9 minutes for ENX, and 7.2 minutes for CPFX.
The differences of AUCs between 4 groups were computed by performing the multiple comparison by Dunnett's method, and the range of p<0.05 was understood as having a statistical significance.

[3] = tested on: Escherichia coli ATCC 25922; test: MIC against Escherichia coli ATCC 25922; type: cell-based; details: ATCC25922
From the text: (§1) The MIC activity unit in the table is μg/mL.

[4] = tested on: Pseudomonas-aeruginosa ATCC 27853; test: MIC (minimum inhibitory concentration) against Pseudomonas-aeruginosa ATCC 27853; type: cell-based
From the text: as §1

[5] = tested on: Escherichia coli NIH JC2; test: MIC against Escherichia coli NIH JC2; type: cell-based; details: NIHJC2
From the text: as §1

[6] = tested on: Enterobacter ATCC 23355; test: MIC against Enterobacter ATCC 23355; type: cell-based; details: ATCC23355
From the text: as §1

[7] = tested on: Pseudomonas-aeruginosa (ATCC27853), Escherichia coli (ATCC25922 and NIH JC2), and Enterobacter (ZTCC23355); test: Comparison of antibacterial activities of LVFX and LVFX-EHE over all tested strains; type: cell-based; details: all four strains of Table 11

Row | Compound | LVFX concentration generated within the small intestine lumen from the ester alone versus LVFX alone [1] | influence of simultaneous administration of AlCl3 on LVFX generated [1] | hydrolysis into LVFX [1] | AUC of LVFX in blood on co-administration with the metal-containing preparation versus LVFX independent administration [2] | blood concentration of LVFX after independent administration of the ester versus independent administration of LVFX [2] | blood concentration of LVFX under concomitant use of polyvalent metal-containing antacid [2] | absorption amount with AlCl3 as percent of LVFX administration alone ([1]; LVFX and AlCl3 concomitantly) | MIC [3] | MIC [4] | MIC [5] | MIC [6] | MIC values considered from clinical break points [7] | antibacterial activity as compared to that of LVFX ([7]; ratio to LVFX) | drug substance LVFX as a hydrolysis product in the everted intestinal tract ([1]; concomitant administration with aluminum chloride) | drug substance LVFX as a hydrolysis product in the everted intestinal tract ([1]; independent administration alone) | peak of LVFX in blood derived from the ester ([2]; ester administered alone) | peak of LVFX in blood derived from the ester ([2]; ester co-administered with Al(OH)3 30 mg/kg)
1 | CC(C)OC(=O)OC(C)OC(=O)c1cn2c3c(c(N4CCN(C)CC4)c(F)cc3c1=O)OC[C@@H]2C (mixture of isomers) [LVFX-iPrHE, Levofloxacin isopropoxycarbonyl 1-ethyl hemiacetal-type ester] | no significant difference | no influence | completely hydrolyzed | no significant difference | A significant difference was not found | not influenced | – | – | – | – | – | – | – | – | – | – | –
2 | C[C@H]1COc2c(N3CCN(C)CC3)c(F)cc3c(=O)c(C(=O)O)cn1c23 [LVFX, (3S)-9-fluoro-3-methyl-10-(4-methyl-1-piperazinyl)-7-oxo-2,3-dihydro-7H-pyrid [1,2,3-de] [1,4] benzoxazine-6-carboxylic acid, reference compound] | – | – | – | – | – | – | about 54% | ≤ 0.065 µg/mL | 0.5 µg/mL (≈ 1.38 µM) | ≤ 0.065 µg/mL | ≤ 0.065 µg/mL | – | – | – | – | – | –
3 | CCOC(=O)OC(C)OC(=O)c1cn2c3c(c(N4CCN(C)CC4)c(F)cc3c1=O)OC[C@@H]2C (stereo partly drawn) [LVFX-EHE, Levofloxacin ethoxycarbonyl-1-ethyl hemiacetal-type ester] | no significant difference | no influence | completely hydrolyzed | no significant difference | Significant differences were not observed | not influenced | – | 0.5 µg/mL (≈ 1.05 µM) | 8 µg/mL (≈ 16.8 µM) | 0.5 µg/mL (≈ 1.05 µM) | 2 µg/mL (≈ 4.19 µM) | non-sensitive to any bacterial strains | 1/10 | – | – | – | –
4 | COC(=O)c1cn2c3c(c(N4CCN(C)CC4)c(F)cc3c1=O)OC[C@@H]2C [LVFX-M, (S)-Methyl-9-fluoro-3-methyl-10-(4-methylpiperazine-1-yl)-7-oxo-3,7-dihydro-2H-[1,4] oxazolino [2,3,4-ij] quinolin-6-carboxylate, reference compound] | – | – | – | – | – | – | – | – | – | – | – | – | – | not detected | not detected | no peak was detected | no peak was detected
